# Results published in ChEMBL document CHEMBL1201862, “PubChem BioAssay data set” (2004).
# Activity calls are given as the source filed them.
# How the values were obtained:
# [1] = molecular target: Genome polyprotein (dengue virus type 2, UniProt P29990); experiment: flavivirus cap methylation enzyme inhibition – biochemical, confirmation dose response, primary screen (AID 588689); assay type: functional
# [2] = tested on: INS1; experiment: INS-1E survival protection against cytokine death – cell-based, luminescence, retest, dose response (AID 449756); assay type: functional; conditions: Rattus norvegicus;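 note: cell death triggered by IL-1 beta plus TNF-alpha plus IFN-gamma mixture; protective hits raise ATP signal compared with cytokine alone wells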
# [3] = reduction of Shn3 3'UTR-driven luciferase in osteoblasts – cell-based, Clone20 osteoblasts, firefly luciferase, cherry-picked, dose response (AID 624132); assay type: functional;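 note: firefly luciferase luminescence from reporter carrying the Shn3 3'UTR in osteoblasts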
# [4] = loss of viability in HepG2 cells – cell-based, CellTiter-Glo, cherry-picked, cytotoxicity control for Shn3 inhibitor project, dose response (AID 624134); assay type: functional
# [5] = non-specific 3'UTR reporter inhibition in Clone20-Shn3RL – cell-based, Renilla luciferase, cherry-picked, counter-screen for Shn3 inhibitor project, dose response (AID 624133); assay type: functional
# [6] = tested on: HEK293; experiment: EBV LMP1 TES2 canonical NF-kB signalling blockers – cell-based, HEK293, luciferase, cherry-pick, dose response (AID 588343); assay type: functional; conditions: Homo sapiens
# [7] = tested on: H9c2; experiment: cells; assay type: functional, cell-based; conditions: Rattus norvegicus, H9c2, Myocardium;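 note: confirmatory concentration-response retest of ultra-high-throughput screening hits for modulation of myocardial damage; cell death induced by hydrogen peroxide oxidative stress; compound pretreatment for 60 min then peroxide exposure for 2 h; potency is for protecting the cells against peroxide damage rather than for killing them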
# [8] = molecular target: T1, High affinity choline transporter 1 (Homo sapiens, UniProt Q9GZV3); experiment: human choline transporter blockers, potency – cell-based, 5-point CRC, membrane potential dye, dose response (AID 504840); assay type: functional
# T1 sequence (Q9GZV3 whole entry): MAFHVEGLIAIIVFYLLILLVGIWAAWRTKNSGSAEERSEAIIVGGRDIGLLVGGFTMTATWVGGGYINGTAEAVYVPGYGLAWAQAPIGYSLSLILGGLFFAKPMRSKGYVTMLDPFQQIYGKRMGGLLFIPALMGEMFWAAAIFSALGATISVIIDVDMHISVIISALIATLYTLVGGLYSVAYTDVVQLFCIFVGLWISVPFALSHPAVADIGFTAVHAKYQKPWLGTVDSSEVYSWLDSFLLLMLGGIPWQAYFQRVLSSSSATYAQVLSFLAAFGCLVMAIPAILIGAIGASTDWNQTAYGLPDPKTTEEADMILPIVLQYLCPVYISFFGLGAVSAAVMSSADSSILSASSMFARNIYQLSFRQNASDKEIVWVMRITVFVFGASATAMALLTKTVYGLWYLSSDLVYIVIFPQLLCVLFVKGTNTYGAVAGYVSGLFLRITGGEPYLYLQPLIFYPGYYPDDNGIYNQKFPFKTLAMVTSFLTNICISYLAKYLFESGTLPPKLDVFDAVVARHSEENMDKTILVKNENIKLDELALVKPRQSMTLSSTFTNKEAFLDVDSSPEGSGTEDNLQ
# [9] = molecular target: T2, Polyadenylate-binding protein 1 (Homo sapiens, UniProt P11940); experiment: MLLE binding blockers, Cy5 peptide tracer – biochemical, fluorescence polarization, Cy5-PAM2 peptide, secondary, miRNA deadenylation inhibitor project, dose response (AID 602260); assay type: functional; conditions: read-out: IC50_Mean
# [10] = molecular target: T2, Polyadenylate-binding protein 1; experiment: MLLE domain peptide-binding blockers, IC50 – biochemical, fluorescence polarization, FITC-PAM2 peptide, dose response (AID 602259); assay type: functional; conditions: read-out: IC50_Mean
# [11] = viability of PTEN-deleted HCT116 cells – cell-based, HCT116 PTEN knockout, dose response (AID 1047); assay type: functional;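 note: HCT116 colon tumor cells with PTEN knocked out; cells exposed to compound for 60 hours before readout; potency for loss of cell viability measured by luminescence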
# [12] = viability of HCT116 lacking mutant beta-catenin – cell-based, human colon tumor, dose response (AID 1045); assay type: functional;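 note: HCT116 colon tumor cells with beta catenin knocked out; cells exposed to compound for 60 hours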
# [13] = cells; assay type: functional
# [14] = molecular target: Paired box protein Pax-8 (Homo sapiens, UniProt Q06710); experiment: PAX8 transcriptional activity inhibition in RMG-I – RMG-I cells, luciferase, cherry-pick, dose response (AID 687027); assay type: functional, cell-based;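 note: luciferase reporter driven by Pax8 target thyroperoxidase promoter measured by SteadyGlo luminescence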
# [15] = OVCAR8 cell viability loss – plate reader, dry powder samples, PAX8 project, dose response (AID 743197); assay type: functional, cell-based; conditions: OVCAR-8
# [16] = molecular target: T3, Carboxy-terminal domain RNA polymerase II polypeptide A small phosphatase 1 (Homo sapiens, UniProt Q9GZU7); experiment: CTDSP1 inhibitors, concentration-response, biochemical, absorbance readout, ultra-high-throughput screen actives (AID 540297); assay type: functional
# T3 sequence (Q9GZU7 whole entry): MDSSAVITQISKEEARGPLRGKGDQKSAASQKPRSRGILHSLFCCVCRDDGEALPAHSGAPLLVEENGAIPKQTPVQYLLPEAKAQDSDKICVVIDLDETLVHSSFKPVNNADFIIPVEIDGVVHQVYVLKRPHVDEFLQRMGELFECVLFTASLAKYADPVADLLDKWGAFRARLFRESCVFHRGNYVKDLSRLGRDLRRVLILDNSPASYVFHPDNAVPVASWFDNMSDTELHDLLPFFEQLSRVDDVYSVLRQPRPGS
# Sequence of Genome polyprotein (P29990 2492-3391 limits assumed): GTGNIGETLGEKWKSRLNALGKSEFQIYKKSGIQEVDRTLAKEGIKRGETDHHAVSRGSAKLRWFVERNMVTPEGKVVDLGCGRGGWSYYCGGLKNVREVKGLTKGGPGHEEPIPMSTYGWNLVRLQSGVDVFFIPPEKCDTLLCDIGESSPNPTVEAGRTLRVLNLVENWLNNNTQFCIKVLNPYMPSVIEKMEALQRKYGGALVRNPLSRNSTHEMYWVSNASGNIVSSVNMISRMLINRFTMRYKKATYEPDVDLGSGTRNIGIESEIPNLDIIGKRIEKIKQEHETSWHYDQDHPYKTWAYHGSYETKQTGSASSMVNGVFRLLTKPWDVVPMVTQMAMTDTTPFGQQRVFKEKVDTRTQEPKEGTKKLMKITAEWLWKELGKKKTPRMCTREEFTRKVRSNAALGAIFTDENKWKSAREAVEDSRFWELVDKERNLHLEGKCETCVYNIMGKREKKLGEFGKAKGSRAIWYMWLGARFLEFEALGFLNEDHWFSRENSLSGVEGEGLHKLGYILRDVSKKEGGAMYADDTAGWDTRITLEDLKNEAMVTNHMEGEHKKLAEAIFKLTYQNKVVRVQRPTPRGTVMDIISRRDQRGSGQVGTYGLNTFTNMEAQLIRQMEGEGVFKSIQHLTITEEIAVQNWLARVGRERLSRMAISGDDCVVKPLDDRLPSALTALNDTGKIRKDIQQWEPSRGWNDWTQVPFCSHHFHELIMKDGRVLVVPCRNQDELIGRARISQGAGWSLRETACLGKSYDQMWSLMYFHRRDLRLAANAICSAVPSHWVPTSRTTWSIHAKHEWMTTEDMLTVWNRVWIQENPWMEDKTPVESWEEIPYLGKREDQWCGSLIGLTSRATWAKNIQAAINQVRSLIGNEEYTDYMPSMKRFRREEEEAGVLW
# T2 sequence (P11940 whole entry, the tested form may be a part): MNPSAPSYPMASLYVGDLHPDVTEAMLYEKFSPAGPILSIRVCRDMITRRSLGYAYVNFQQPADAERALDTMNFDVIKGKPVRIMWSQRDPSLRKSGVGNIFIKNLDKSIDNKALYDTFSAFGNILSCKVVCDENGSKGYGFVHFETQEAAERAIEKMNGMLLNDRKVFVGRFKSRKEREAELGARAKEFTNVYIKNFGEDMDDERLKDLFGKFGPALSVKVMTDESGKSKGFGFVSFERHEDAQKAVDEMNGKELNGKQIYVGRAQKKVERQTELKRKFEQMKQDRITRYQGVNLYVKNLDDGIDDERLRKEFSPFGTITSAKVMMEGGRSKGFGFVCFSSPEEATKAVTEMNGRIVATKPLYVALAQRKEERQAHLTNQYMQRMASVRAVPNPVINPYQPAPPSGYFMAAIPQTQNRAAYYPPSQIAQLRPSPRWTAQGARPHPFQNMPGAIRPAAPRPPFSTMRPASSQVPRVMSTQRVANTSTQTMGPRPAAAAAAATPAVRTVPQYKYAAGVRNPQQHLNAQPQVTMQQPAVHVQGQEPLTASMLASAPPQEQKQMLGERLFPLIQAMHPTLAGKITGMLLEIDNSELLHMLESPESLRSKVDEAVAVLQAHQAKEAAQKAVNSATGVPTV
# Sequence of Paired box protein Pax-8 (Q06710 whole entry): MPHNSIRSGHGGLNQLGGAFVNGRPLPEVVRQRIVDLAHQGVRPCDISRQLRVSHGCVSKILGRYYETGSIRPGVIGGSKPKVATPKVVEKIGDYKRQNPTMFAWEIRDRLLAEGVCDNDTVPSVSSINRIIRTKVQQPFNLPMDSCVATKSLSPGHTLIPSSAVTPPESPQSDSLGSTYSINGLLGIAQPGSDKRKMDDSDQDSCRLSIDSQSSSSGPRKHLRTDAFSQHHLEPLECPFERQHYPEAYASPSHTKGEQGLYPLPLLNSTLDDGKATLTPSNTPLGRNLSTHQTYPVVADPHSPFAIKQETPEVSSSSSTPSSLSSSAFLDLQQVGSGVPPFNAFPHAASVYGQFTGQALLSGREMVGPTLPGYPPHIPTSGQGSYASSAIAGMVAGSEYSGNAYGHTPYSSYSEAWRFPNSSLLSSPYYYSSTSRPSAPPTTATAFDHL
compound,measurement,setting,value
O=C(O)/C=C/C(=O)c1ccc(O)cc1,IC50,[1],> 100 µM (active)
CN(C)C1=NC[C@H](Cc2ccccc2)N1CCCC1CCCCC1,AC50,[2],7.42 µM (active)
same,AC50,[3],1.47 µM (active)
same,AC50,[4],20.3 µM (active)
same,AC50,[5],4.98 µM (active)
COc1ccc(-n2c(C)c(C(C)=O)c3cc(OC(C)=O)ccc32)cc1,AC50,[6],4.43 µM (active)
same,IC50,[7],> 79 µM (inactive)
Cc1onc(-c2ccccc2Cl)c1C(=O)Nc1nnc(-c2cccc([N+](=O)[O-])c2)s1,IC50,[8],19.1 µM (active)
CC[C@]1(C(=O)OC)[C@H]2C(=O)N(Cc3ccccc3)C(=O)[C@H]2[C@H]2CN=C(SCc3ccc(Cl)cc3)N21,AC50,[6],3.31 µM (active)
Oc1cc(CNC2CCCCC2)c(O)cc1CNC1CCCCC1,IC50,[1],27.4 µM (active)
same,IC50,[9],> 66 µM (inactive)
same,IC50,[10],47.7 µM (inactive)
COc1ccc(C(=O)N[C@H]2CCCCNC2=O)cc1OC1CCN(C(C)C)CC1,IC50,[8],15.1 µM (active)
O=C(c1ccoc1)N1CCN(c2cc(-c3cccc(F)c3)nc3cc(-c4cccc(Cl)c4)nn23)CC1,AC50,[3],9.78 µM (active)
same,AC50,[4],> 70 µM (inactive)
same,AC50,[5],12.9 µM (active)
C#CCn1/c(=N/C(=O)c2ccc(S(=O)(=O)N3CCc4ccccc4C3)cc2)sc2cc(S(N)(=O)=O)ccc21,EC50,[11],1.62 µM (active)
same,EC50,[12],1.31 µM (active)
same,AC50,[2],2.68 µM (active)
same,AC50,[3],1.29 µM (active)
same,AC50,[4],37.3 µM (active)
same,AC50,[5],23.9 µM (active)
CC(O)(c1ccncc1)c1nc(-c2cccc(C(F)(F)F)c2)cs1 (stereo not given),AC50,[3],5.34 µM (active)
same,AC50,[4],> 70 µM (inactive)
same,AC50,[5],12.5 µM (active)
CC(/C=C/c1ccccc1)=N\NC(=O)c1ccc2c(c1)OCCO2,IC50,[13],25.7 µM (active)
Cc1ccc(S(=O)(=O)Nc2ccc3c(c2)C(=O)N([C@H](C)CO)C[C@@H](C)[C@H](CN(C)S(=O)(=O)c2ccc(Cl)cc2)OCCCC[C@H](C)O3)cc1,AC50,[14],8.13 µM (active)
same,AC50,[15],> 70 µM (inactive)
O=C(O)c1cccc2c1/C(=N/Nc1ccc([N+](=O)[O-])cc1[N+](=O)[O-])c1ccccc1-2,IC50,[8],15.2 µM (active)
same,IC50,[16],30.7 µM (active)
